Test systems include ACHN renal; U251 CNS; CAKI-1 renal; IGROV1 ovarian; HS 578T breast; TK-10 renal; KM12 colon; SK-MEL-5 melanoma; SR leukemia; NCI-H226 lung.
Assay in all cases: DTP human tumour cell line panel, 48 h

The GI50 is the concentration at which growth is held to half of that of the control. Broadly, the TGI is the concentration giving total growth inhibition. A higher TGI goes with less potent growth arrest.

Each structure is given as a SMILES string.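 Dose response: 5 concentrations. Exposure: 48 h. Format: 96-well plates. Endpoint: linear interpolation; highest concentration if not reached. GI50 is the concentration that inhibits growth by half. TGI: total growth inhibition.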

On to `OCCCCC#Cc1ccccc1C#Cc1ccccc1C(F)(F)F`, for which the GI50 with ACHN renal was 11.4 µM; with U251 CNS, 4.63 µM; in the assay on CAKI-1 renal, 5.37 µM; with IGROV1 ovarian, 11.2 µM; in the assay on HS 578T breast, 11.8 µM; with TK-10 renal, 18.6 µM. Besides, the GI50 was 3.57 µM in the assay on KM12 colon, 11.6 µM with SK-MEL-5 melanoma, 0.475 µM with SR leukemia and 16.7 µM with NCI-H226 lung. For the same compound, the TGI in the assay with ACHN renal was found to be 23.5 µM; in the assay with U251 CNS, 17.9 µM; in the assay on CAKI-1 renal, 17.9 µM; with IGROV1 ovarian, 23.2 µM; in the assay on HS 578T breast it was 37.1 µM; in the assay on TK-10 renal, 47.1 µM. Moreover, the concentration for total growth inhibition (TGI) with KM12 colon stood at 16.7 µM; in the assay on SK-MEL-5 melanoma, 24.4 µM; in the assay on SR leukemia, 2.97 µM; in the assay with NCI-H226 lung, 44.4 µM.
For the compound `CCN(CC)CCOc1ccc(/C=C2\CC3C4CC=C5C[C@@H](N6CCCC6)CC[C@]5(C)C4CC[C@]3(C)[C@H]2O)cc1OC` (stereo not given in full), the GI50 was 5.94 µM with ACHN renal; 3.08 µM in the assay on U251 CNS; 16.3 µM in the assay on CAKI-1 renal; 8.91 µM in the assay on IGROV1 ovarian; 0.76 µM in the assay on HS 578T breast; 9.64 µM with TK-10 renal. For the same compound, the GI50 was 2.67 µM with KM12 colon, 0.336 µM with SK-MEL-5 melanoma, 0.224 µM with SR leukemia and 19.3 µM with NCI-H226 lung. For the same compound, the total growth inhibition concentration (TGI) with ACHN renal was 26.2 µM; with U251 CNS, 20.5 µM; in the assay with CAKI-1 renal it was 46.1 µM; with IGROV1 ovarian it was above 27.6 µM; with HS 578T breast, 13.6 µM; in the assay with TK-10 renal it was 37.2 µM. In addition, the TGI with KM12 colon is 11.9 µM; in the assay with SK-MEL-5 melanoma, 1.95 µM; in the assay on SR leukemia, 0.648 µM; in the assay with NCI-H226 lung, 45.2 µM.
With `Cc1cc2c(F)c(Oc3ncnn4cc(OC[C@@H](C)OC(=O)[C@H](C)N)c(C)c34)ccc2[nH]1`, the GI50 was 8.85 µM in the assay with ACHN renal; 4.22 µM with U251 CNS; 7.21 µM with CAKI-1 renal; 9.1 µM in the assay on IGROV1 ovarian; 9.36 µM in the assay on HS 578T breast; 13.5 µM in the assay on TK-10 renal. Also, the GI50 was 7.68 µM in the assay with KM12 colon, 3.26 µM in the assay on SK-MEL-5 melanoma, 2.99 µM with SR leukemia and 7.75 µM in the assay on NCI-H226 lung. Besides, the TGI in the assay with ACHN renal came out at 21.5 µM; in the assay with U251 CNS it was 18.5 µM; in the assay on CAKI-1 renal, 21.5 µM; in the assay with IGROV1 ovarian, 23.4 µM; in the assay with HS 578T breast, 44.2 µM; in the assay on TK-10 renal, 27.1 µM. Moreover, the TGI turned out to be 20.5 µM with KM12 colon, 15.1 µM in the assay on SK-MEL-5 melanoma, 16 µM in the assay with SR leukemia and 24.8 µM in the assay on NCI-H226 lung.
Regarding `C[C@]12CC[C@@H]3c4ccc(O)cc4CC[C@H]3[C@@H]1CC[C@@H]2NS(=O)(=O)Cc1ccc(Cl)cc1`, the GI50 in the assay on ACHN renal was 2.94 µM; in the assay with U251 CNS, 3.33 µM; in the assay with CAKI-1 renal, 3.06 µM; in the assay on IGROV1 ovarian it was 2.99 µM; in the assay on HS 578T breast, 2.4 µM; in the assay with TK-10 renal, 3.5 µM. For the same compound, the GI50 is 2.05 µM in the assay with KM12 colon, 1.77 µM with SK-MEL-5 melanoma, 3.69 µM in the assay with SR leukemia and 3.19 µM in the assay on NCI-H226 lung. Further, the TGI turned out to be 11.5 µM with ACHN renal; 11.8 µM in the assay with U251 CNS; 11.2 µM in the assay on CAKI-1 renal; 10.4 µM in the assay on IGROV1 ovarian; 7.46 µM in the assay with HS 578T breast; 14.9 µM in the assay on TK-10 renal. Moreover, the TGI was 4.39 µM with KM12 colon, 3.45 µM in the assay with SK-MEL-5 melanoma, above 100 µM in the assay with SR leukemia and 12.6 µM with NCI-H226 lung.

Source of the values: PubChem BioAssay (NCI).
